{"source": "patent EP4455292A1", "about": "“A METHOD FOR DETECTING ECTOINE” (Kaunas University of Technology, priority 2023, dated 2024)", "key": {"[1]": {"test_system": "ectoine-inducible system EutR/PeutB", "assay": "P. putida-based ectoine biosensor (plasmid pEct-1), RFP reporter fluorescence response", "assay_type": "cell-based", "method": "(§1) The fluorescence and cell absorbance were measured at multiple time points. Freshly grown bacterial cells were used to inoculate 2 mL of MM containing appropriate antibiotics in 50-mL centrifuge tubes, and cell cultures were grown overnight at 200 rpm and 30 °C. To obtain logarithmically growing cells, E. coli and P. putida overnight cultures were diluted to 0.05 OD600, respectively, in 5 mL of fresh medium with antibiotic. After the cells were grown to an OD600 of 0.15-0.2, culture aliquots of 142.5 µL were transferred into flat and clear bottom black 96-well plate (Corning Incorporated) and 7.5 µL of ectoine or hydroxyectoine was added to each culture to the required final concentration. Absorbance and fluorescence of cultures were measured using an Infinite Nano+ microplate reader (Tecan). Multiple time point measurements were taken every 10 min over the course of 15-20 hours with a plate reader measuring RFP fluorescence at excitation and emission wavelengths set to 585 nm and 620 nm, respectively, and absorbance at 600 nm. Obtained fluorescence and absorbance values were corrected by subtracting the autofluorescence and absorbance of the culture medium. The absolute normalized fluorescence was determined dividing the fluorescence value by corresponding absorbance value.\nThe dose-response of biosensors was determined by using single time-point values of fluorescence and absorbance, […] ranging from 0 to 5 mM. […] The fluorescence and absorbance were measured using the same conditions and plate reader as indicated above.\nThe plasmid pEct-1 was used to characterize biosensor's response to exogenously added ectoine. […] To evaluate biosensor's response to the ectoine, the fluorescence output was quantified.\nFirst, the time course experiments were performed in E. coli and P. putida. […] The fluorescence continued to increase throughout the course of 20-hour time course experiment. Importantly, the uninduced baseline (no ectoine) remained at 0 fluorescence units. […]"}, "AraC-PBAD": {"test_system": "AraC-PBAD", "settings": "prior-art AraC-PBAD sensor, E. coli; cited from earlier work"}, "[2]": {"test_system": "ectoine-inducible system EutR/PeutB", "assay": "E. coli-based ectoine biosensor (plasmid pEct-1), RFP reporter fluorescence response", "assay_type": "cell-based", "method": "as §1\nThe dose-response of biosensors was determined by using single time-point values of fluorescence and absorbance, which were obtained from the multiple time-point measurements 4 h after supplementation of ectoine or hydroxyectoine at different concentrations ranging from 0 to 5 mM. For all assays, the cultures of E. coli and P. putida were prepared as described above, and 142.5 µL of logarithmically growing cells, supplemented with 7.5 µL of ectoine or hydroxyectoine, were cultured in 96-well plate. The fluorescence and absorbance were measured using the same conditions and plate reader as indicated above.\nThe plasmid pEct-1 was used to characterize biosensor's response to exogenously added ectoine. Experiments were performed to determine the kinetics of induction establishing the time that is required for the system to respond to a change in the ectoine and the dose response of the system. To evaluate biosensor's response to the ectoine, the fluorescence output was quantified.\nFirst, the time course experiments were performed in E. coli and P. putida. Accordingly, cells of both microorganisms harbouring the plasmid pEct-1, were cultivated in minimal medium (MM) at 200 rpm and 30° C (E. coli: Cm 50 mg/L; P. putida: Tet 12.5 mg/L), in the presence and absence of 1 mM ectoine; their optical density (OD600) and RFP fluorescence were monitored over time (Figure 3). In both microorganisms, the RFP expression above the level of the uninduced culture started with 60-90 minutes delay after addition of ectoine (Figure 3 and Figure 4) supporting the notion that the ectoine's catabolic product, the alpha-ADABA, as identified previously [Schultz et al (2017) Environ. Microbiol. 19(11), 4599-4619; Hermann et al (2021) Front. Microbiol. 12, 764731] is the effector that activates gene expression in P. putida. The fluorescence continued to increase throughout the course of 20-hour time course experiment. Importantly, the uninduced baseline (no ectoine) remained at 0 fluorescence units. […] Such \"non-leaky\" system helps improving the quantification accuracy of reporter fluorescence, but also can be used to control the gene expression that can be harmful or even toxic to a cell. […]"}, "[3]": {"settings": "MM, 10 hours after supplementation, text does not separate the two hosts"}, "[4]": {"settings": "E. coli, MM, 10 hours after supplementation, text does not separate the two hosts"}}}
{"smiles": "CC1=NC(C(=O)O)CCN1", "note": "(stereo not drawn) [ectoine, 1,4,5,6-tetrahydro-2-methyl-4-pyrimidinecarboxylic acid]", "values": [{"measurement": "delay of RFP expression above the level of the uninduced culture after addition of ectoine", "setting": "[1]; 1 mM ectoine, 30° C", "result": "60 to 90", "unit": "min"}, {"measurement": "limit of detection", "setting": "[1]; [3]", "result": "below 1 µM"}, {"measurement": "range of linear fluorescence response to exogenously present ectoine", "setting": "[1]; [3]", "result": "1 to 20", "unit": "µM"}, {"measurement": "minimal ectoine concentration needed for observable induction", "setting": "AraC-PBAD", "result": "around 10 mM"}, {"measurement": "delay of RFP expression above the level of the uninduced culture after addition of ectoine", "setting": "[2]; 1 mM ectoine, MM, 30° C, E. coli", "result": "60 to 90", "unit": "min"}, {"measurement": "fold lower minimal ectoine concentration needed for observable induction (applicant's sensor vs AraC-PBAD sensor)", "setting": "[2]; E. coli expression organism", "result": "around 1000 fold"}, {"measurement": "limit of detection", "setting": "[2]; [4]", "result": "below 1 µM"}, {"measurement": "range of linear fluorescence response to exogenously present ectoine", "setting": "[2]; [4]", "result": "1 to 20", "unit": "µM"}, {"measurement": "minimal effective concentration", "setting": "[2]; Escherichia coli, applicant's sensor, E. coli expression organism, read-out: minimal ectoine concentration needed for observable induction", "result": 1, "unit": "µM"}]}
